According to patent publication US7960339B2, “Antimicrobial peptides” (Österreichische Akademie der Wissenschaften, priority 2006, dated 2011):
Read-outs that look alike come from different tables or passages of the source. Square brackets hold non-standard residues; d marks the D form. Ends that are not written are not given here. Peptide text beside a SMILES is read from it. * marks the point of attachment. Dicyclohexylacetyl = O=C(C(C1CCCCC1)C1CCCCC1)*; Butanoyl(2,2-Me2) = CCC(C)(C)C(=O)*; Octanoyl(6-Me) = CCC(C)CCCCC(=O)*; Octanoyl = CCCCCCCC(=O)*; X1 = CCCCC(CC)C(=O)*

What was measured:
LPS Re595 = experiment: Local Shwartzmann reaction in rabbit (lipid A-induced hemorrhagic dermonecrosis); format: in vivo, New Zealand White rabbits; conditions: i.d. injection in shaved dorsal region; open necrosis observed after 72-96 hours; minimum 3 injections in minimum 3 rabbits
Method: (§1) The principle of lipid A-induced pro-inflammatory cytokine activity leading to hemorrhagic dermonecrosis (classical Shwartzmann reaction) was tested in rabbit, an animal model very close to humans in terms of sensitivity to LPS activity, and was compared to the inhibition of the lipid A-induced LAL enzymatic cascade activation leading to clot. Thereby, New Zealand White rabbits were injected in the shaved dorsal region with S. minnesota Re595 lipid A alone or with peptide 1:100 (w/w) (5 μg in 0.2 ml saline buffer; route i.d.). […] Polymyxin B (PmB) was used as a control.

LPS S. Minnesota Re595 = experiment: Endpoint LAL activity (Limulus gel-clotting test), inhibition of lipid A-induced LAL enzymatic cascade; format: biochemical; conditions: sensibility 0.125 EU/ml, peptide:LPS 100:1 (w/w), minimum of 6 tests in triplicate
Method: as §1

C. neoformans ATCC 32045 = format: cell-based
Method in brief: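 Fungal inoculum was about 1×10^5 to 5×10^5 CFU/ml in 2×YM broth, added to peptides dispensed at 1 mg/ml to 1 μg/ml in twofold serial dilutions. After 72 hrs at 26° C, relative growth was read as OD620. IC50 values came from sigmoidal curve fitting.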

[1] = 50% growth inhibition, OD620, 72 hrs at 26° C., 2×YM broth
[2] = lowest concentration that resulted in 2% growth, OD620, 72 hrs at 26° C., 2×YM broth

| Compound | Local Shwartzmann reaction in rabbit peptide: LPS Re595 100:1 (w/w) (LPS Re595) | Endpoint LAL activity peptide: LPS Re595 100:1 (w/w) (LPS S. Minnesota Re595) | average IC50 (C. neoformans ATCC 32045; [1]) [µg/mL] | average MIC (C. neoformans ATCC 32045; [2]) [µg/mL] | average IC50 (C. neoformans ATCC 32045; ATCC 32045, 72 h) [µg/mL] | average MIC (C. neoformans ATCC 32045; ATCC 32045, 72 h) [µg/mL] |
| --- | --- | --- | --- | --- | --- | --- |
| CC[C@H](C)[C@@H]1NC(=O)[C@H](CCCNC(=N)N)NC(=O)[C@H]([C@@H](C)CC)NC(=O)[C@H](CCCNC(=N)N)NC(=O)[C@H](Cc2c[nH]c3ccccc23)NC(=O)[C@H](Cc2ccccc2)NC(=O)[C@H](CCCNC(=N)N)NC(=O)[C@H](CCCNC(=N)N)NC1=O [VF50, cyclo FWRIRIRR-NH2] (cyclo(FWRIRIRR)) | NEGATIVE | NEGATIVE |  |  |  |  |
| CC[C@H](C)[C@H](NC(=O)[C@H](CC(N)=O)NC(=O)[C@H](CCCNC(=N)N)NC(=O)[C@H](CCC(N)=O)NC(=O)[C@H](Cc1c[nH]c2ccccc12)NC(=O)[C@@H](N)Cc1ccccc1)C(=O)N[C@@H](CCCNC(=N)N)C(=O)N[C@@H](CCCCN)C(=O)N[C@@H](Cc1c[nH]c2ccccc12)C(=O)N[C@@H](CCCNC(=N)N)C(N)=O [VS1-15, FWQRNIRKWR-NH2] (H-FWQRNIRKWR-NH2) | NEGATIVE | NEGATIVE | 5 | 16 |  |  |
| CC[C@H](C)[C@H](NC(=O)[C@H](CCCNC(=N)N)NC(=O)[C@H](CCCNC(=N)N)NC(=O)[C@H](CCC(N)=O)NC(=O)[C@H](Cc1c[nH]c2ccccc12)NC(=O)[C@@H](N)Cc1ccccc1)C(=O)N[C@@H](CCCNC(=N)N)C(=O)N[C@@H](CCCNC(=N)N)C(=O)N[C@@H](Cc1c[nH]c2ccccc12)C(=O)N[C@@H](CCCNC(=N)N)C(=O)N[C@@H](CCCNC(=N)N)C(N)=O [VS1-18, FWQRRIRRWRR-NH2] (H-FWQRRIRRWRR-NH2; N-terminus assumed) | NEGATIVE | NEGATIVE | 7 | 32 |  |  |
| CC[C@H](C)[C@H](NC(=O)[C@H](CC(N)=O)NC(=O)[C@H](CCCNC(=N)N)NC(=O)[C@H](CCC(N)=O)NC(=O)[C@H](Cc1c[nH]c2ccccc12)NC(=O)[C@H](Cc1ccccc1)NC(=O)C(C)(C)CC)C(=O)N[C@@H](CCCNC(=N)N)C(=O)N[C@@H](CCCCN)C(=O)N[C@@H](Cc1c[nH]c2ccccc12)C(=O)N[C@@H](CCCNC(=N)N)C(N)=O [VS1-42, 2,2-dimethylbutanoyl FWQRNIRKWR-NH2] ({Butanoyl(2,2-Me2)}-FWQRNIRKWR-NH2) | NEGATIVE | NEGATIVE | 6 | 16 |  |  |
| CC[C@H](C)[C@H](NC(=O)[C@H](CCCNC(=N)N)NC(=O)[C@@H](NC(=O)[C@H](CCCNC(=N)N)NC(=O)[C@H](Cc1c[nH]c2ccccc12)NC(=O)[C@H](Cc1ccccc1)NC(=O)[C@@H]1CCCN1C(=O)C(C)(C)CC)[C@@H](C)CC)C(=O)N[C@@H](CCCNC(=N)N)C(=O)N[C@@H](CCCNC(=N)N)C(N)=O [VS1-52, 2,2-dimethylbutanoyl PFWRIRIRR-NH2] ({Butanoyl(2,2-Me2)}-PFWRIRIRR-NH2) | NEGATIVE | NEGATIVE | 2 | 4 |  |  |
| CCC(C)CCCCC(=O)N[C@@H](Cc1ccccc1)C(=O)N[C@@H](Cc1c[nH]c2ccccc12)C(=O)N[C@@H](CCCNC(=N)N)C(=O)N[C@H](C(=O)N[C@@H](CCCNC(=N)N)C(=O)N[C@H](C(=O)N[C@@H](CCCNC(=N)N)C(=O)N[C@@H](CCCNC(=N)N)C(N)=O)[C@@H](C)CC)[C@@H](C)CC (some centres unmarked) [VS1-58, 6-methyloctanoyl FWRIRIRR-NH2] ({Octanoyl(6-Me)}-FWRIRIRR-NH2) |  |  |  |  | 6 | 16 |
| CC[C@H](C)[C@H](NC(=O)[C@H](CCCNC(=N)N)NC(=O)[C@@H](NC(=O)[C@H](CCCNC(=N)N)NC(=O)[C@H](Cc1c[nH]c2ccccc12)NC(=O)[C@H](Cc1ccccc1)NC(=O)C(C1CCCCC1)C1CCCCC1)[C@@H](C)CC)C(=O)N[C@@H](CCCNC(=N)N)C(=O)N[C@@H](CCCNC(=N)N)C(N)=O [VS1-59, dicyclohexylacetyl FWRIRIRR-NH2] (Dicyclohexylacetyl-FWRIRIRR-NH2) |  |  |  |  | 14 | 62 |
| CCCCCCCC(=O)N[C@@H](Cc1ccccc1)C(=O)N[C@@H](Cc1c[nH]c2ccccc12)C(=O)N[C@@H](CCCNC(=N)N)C(=O)N[C@@H](CCCNC(=N)N)C(=O)N[C@@H](Cc1ccccc1)C(=O)N[C@@H](Cc1c[nH]c2ccccc12)C(=O)N[C@@H](CCCNC(=N)N)C(=O)N[C@@H](CCCNC(=N)N)C(N)=O [VS1-60, octanoyl FWRRFWRR-NH2] (Octanoyl-FWRRFWRR-NH2) |  |  |  |  | 10 | 32 |
| CCCCC(CC)C(=O)N[C@@H](Cc1ccccc1)C(=O)N[C@@H](Cc1c[nH]c2ccccc12)C(=O)N[C@@H](CCCNC(=N)N)C(=O)N[C@@H](CCCNC(=N)N)C(=O)N[C@@H](Cc1ccccc1)C(=O)N[C@@H](Cc1c[nH]c2ccccc12)C(=O)N[C@@H](CCCNC(=N)N)C(=O)N[C@@H](CCCNC(=N)N)C(N)=O (some centres unmarked) [VS1-61, 2-ethylhexanoyl FWRRFWRR-NH2] (X1-FWRRFWRR-NH2) |  |  |  |  | 6 | 16 |
| CCC(C)(C)C(=O)N[C@@H](Cc1ccccc1)C(=O)N[C@@H](Cc1c[nH]c2ccccc12)C(=O)N[C@@H](CCCNC(=N)N)C(=O)N[C@@H](CCCNC(=N)N)C(=O)N[C@@H](Cc1ccccc1)C(=O)N[C@@H](Cc1c[nH]c2ccccc12)C(=O)N[C@@H](CCCNC(=N)N)C(=O)N[C@@H](CCCNC(=N)N)C(N)=O [VS1-62, 2,2-dimethylbutanoyl FWRRFWRR-NH2] ({Butanoyl(2,2-Me2)}-FWRRFWRR-NH2) |  |  |  |  | 4 | 16 |
| CCC(C)CCCCC(=O)N[C@@H](Cc1ccccc1)C(=O)N[C@@H](Cc1c[nH]c2ccccc12)C(=O)N[C@@H](CCCNC(=N)N)C(=O)N[C@@H](CCCNC(=N)N)C(=O)N[C@@H](Cc1ccccc1)C(=O)N[C@@H](Cc1c[nH]c2ccccc12)C(=O)N[C@@H](CCCNC(=N)N)C(=O)N[C@@H](CCCNC(=N)N)C(N)=O (some centres unmarked) [VS1-63, 6-methyloctanoyl FWRRFWRR-NH2] ({Octanoyl(6-Me)}-FWRRFWRR-NH2) |  |  |  |  | 11 | 62 |
| N=C(N)NCCC[C@H](NC(=O)[C@H](CCCNC(=N)N)NC(=O)[C@H](Cc1c[nH]c2ccccc12)NC(=O)[C@H](Cc1ccccc1)NC(=O)[C@H](CCCNC(=N)N)NC(=O)[C@H](CCCNC(=N)N)NC(=O)[C@H](Cc1c[nH]c2ccccc12)NC(=O)[C@H](Cc1ccccc1)NC(=O)C(C1CCCCC1)C1CCCCC1)C(N)=O [VS1-64, dicyclohexylacetyl FWRRFWRR-NH2] (Dicyclohexylacetyl-FWRRFWRR-NH2) |  |  |  |  | 6 | 32 |
| FWQRNIRKVRRRI-NH2 [Peptide P1-12] | NEGATIVE | NEGATIVE |  |  |  |  |
| FWQRNYRKVR-NH2 [Peptide P1-39] | NEGATIVE | NEGATIVE |  |  |  |  |
| FwRNIRIRR-NH2 (F[dW]RNIRIRR-NH2; N-terminus assumed; SMILES CC[C@H](C)[C@H](NC(=O)[C@H](CCCNC(=N)N)NC(=O)[C@@H](NC(=O)[C@H](CC(N)=O)NC(=O)[C@H](CCCNC(=N)N)NC(=O)[C@@H](Cc1c[nH]c2ccccc12)NC(=O)[C@@H](N)Cc1ccccc1)[C@@H](C)CC)C(=O)N[C@@H](CCCNC(=N)N)C(=O)N[C@@H](CCCNC(=N)N)C(N)=O) [Peptide P2-11] | NEGATIVE | NEGATIVE |  |  |  |  |
| KRWSWKK-NH2 [Peptide P1-63] | NEGATIVE | NEGATIVE |  |  |  |  |
| RFWQRNIRIRR-NH2 [Peptide P2-18] | NEGATIVE | NEGATIVE |  |  |  |  |
| RWQRNIRIRR-NH2 [Peptide P2-19] | NEGATIVE | NEGATIVE |  |  |  |  |
